The record followed here is US6492167B2, “Ubiquitous potassium-channel proteins and their genes” (JCR Pharmaceuticals Co., Ltd., priority 1995, dated 2002).

For assay [1], the target named is T1, ruKATP-1 (Rattus norvegicus, UniProt Q63664).
T1 construct: The expression plasmid (pCMV6b) carrying a full-length ruKATP-1 coding cDNA was transfected into HEK 239 cells; expressed in transfected cells; host or cells: HEK 239 (sic) cells, plasmid pCMV6b, Lipofectamine
T1 sequence (Q63664 1-424): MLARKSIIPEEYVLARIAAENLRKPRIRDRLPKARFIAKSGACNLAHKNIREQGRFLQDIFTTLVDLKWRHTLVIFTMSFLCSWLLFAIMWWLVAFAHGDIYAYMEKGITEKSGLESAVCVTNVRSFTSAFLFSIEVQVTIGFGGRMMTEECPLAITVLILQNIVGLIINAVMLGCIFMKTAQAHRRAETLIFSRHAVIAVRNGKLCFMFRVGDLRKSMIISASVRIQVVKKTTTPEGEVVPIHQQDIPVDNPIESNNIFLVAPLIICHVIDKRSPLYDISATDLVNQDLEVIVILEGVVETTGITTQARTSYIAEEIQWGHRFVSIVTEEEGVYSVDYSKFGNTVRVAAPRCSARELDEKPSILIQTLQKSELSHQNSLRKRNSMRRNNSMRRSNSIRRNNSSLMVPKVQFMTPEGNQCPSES
Kind of assay: Single-channel analysis of HEK 239 cells having ruKATP-1 expressed (inside-out mode). The assay is classed as cell-based. Conditions: for uKATP-1 channel activity (state of channel): inside-out mode. As for the experimental part: […] cells were cultured in minimum essential Eagle's medium supplemented with 10% of horse serum. The expression plasmid (pCMV6b) carrying a full-length ruKATP-1 coding cDNA was transfected into […] cells with use of Lipofectamine to prepare transformed HEK 293 cells. The transformed cells produced in this. manner were subjected to single channel analysis, with the results being shown in FIGS. 8A and 8B.
FIG. 7 illustrates effects of ATP on the uKATP-1 channel activity as observed in the inside-out mode.

Assay [2] concerns the target T1, ruKATP-1. Nature of the assay: Electrophysiological analysis of Xenopus oocytes injected with ruKATP-1 cRNA. Format: cell-based. As for the experimental part: A 20 ng quantity of cRNA synthesized in vitro from plasmid pGEM11Z containing a full-length ruKATP-1 cDNA with the RNA polymerase after being linearized through treatment with a restriction enzyme Not1 was injected into Xenopus oocytes, followed by electrophysiological analysis 2 or 3 days later. (see FIG. 7). As is illustrated in FIGS. 7A and 7B, there was observed a K^+ electric current showing weak inward rectification. The K^+ electric current was suppressed by adding Ba^2+ in the exracellular fluid.

Turning to `[Mg+2]` [Mg^2+], the “outward electric current flowing through the channel” value at ruKATP-1 [1] (intracellular Mg2+, transformed HEK cells) is “suppressed”.

`[Ba+2]` [Ba^2+]: the “inward rectification (inward current) of oocytes injected with ruKATP-1 cRNA” value at ruKATP-1 [2] (300 μM Ba2+ added to the extracellular fluid, 45 mM [K+] extracellular fluid) is “blocked”. Further, the “K+ electric current showing weak inward rectification” value at ruKATP-1 [2] (Ba2+ added in the extracellular fluid, concentration not given) is given as “suppressed”.

Take `Nc1ncnc2c1ncn2[C@@H]1O[C@H](COP(=O)(O)OP(=O)(O)OP(=O)(O)O)[C@@H](O)[C@H]1O` [ATP]: the results for the “uKATP-1 channel activity (state of channel)” value at ruKATP-1 [1] (1 μM of ATP added inside the cellular membrane) and on ruKATP-1 [1] (addition of ATP) were “open” and “closed completely”, respectively.
